{
  "source": "patent US7030081B2",
  "about": "(S.I.S.S.A.- Scuola Internazionale Superiore di Studi …, priority 2000, dated 2006)",
  "key": {"[1]": {"system": "nAChRs of rat chromaffin cells", "assay": "Patch-clamp recording of nicotine-induced currents in cultured rat chromaffin cells", "assay_type": "cell-based", "details": "for depression (reduction) of the response to nicotine: 5 μM physostigmine, 0.1 mM nicotine; for effect on nicotine dose response curve: 1 μM peptide or 0.5 μM physostigmine", "procedure": "Cultures of rat chromaffin cells were prepared according to the Brandt method (Brandt et al., 1976, Giniatullin et al., 1999, Khirough et al., 1997, 1998). 25–35 day old rats were anaesthetized by increasing CO2 levels and then their adrenal glands were removed. The medullary part was separated from the cortical portion of the gland in buffer solution (pH 7.2) containing (mM): NaCl 137, KCl 3, Na2HPO4 0.7, HEPES 25, glucose 10 and 350 U ml^−1 of penicillin and streptomycin.\nCells were successively dissociated from fragments of medullary tissue at 37° C. over about 60 min, by passing them through a Pasteur pipette at 15 min intervals, and by enzymatic treatment with collagenase A and DNAse I (0.5 U ml^−1 and 10 μgml^−1). The cell containing suspension was then centrifuged at 700 rpm for 5 min and washed twice in HEPES buffered medium. The cells, after re-suspension in DMEM culture medium (Dulbecco's modified Eagle's medium) with addition of 10% FCS (calf fetal serum), were plated on poly-lysine (5 mg/ml)-pretreated Petri dishes and cultured at 37° C. for 1–2 days in 5% CO2 containing atmosphere.\n(§1) Dishes containing cultured cells (used from 0 to 3 days after their preparation) were placed on an inverted Nikon DIAPHOT™ microscope and continuously superfused (5–10 ml/min) with control saline containing (mM): NaCl 135, KCl 5, MgCl2 1, CaCl2 2, glucose 15, HEPES 10 (pH 7.4 with addition of […]; 285 mOsm osmolarity). The patch pipettes, obtained from glass capillary tubes (1.5 mm o.d.) had 5–6 MΩ resistance when filled with intracellular solution containing: (mM) CsCl 120; HEPES 20; MgCl2 1; Mg2ATP3 3, BAPTA 10 (240 mOsm). The pH of the intracellular solution was adjusted to 7.2 with CsOH. Unless otherwise specified, all recordings were carried out at −70 mV membrane potential. After obtaining whole-cell configuration (Hamill et al. 1981), each cell was stabilized for […] period, after which membrane ionic currents, mediated by nAChR activation, were recorded, filtered at 1 kHz, and stored in a PC for subsequent analysis with the pCLAMP 6.04 program (Axon Instruments Inc., Foster City, Calif.).\nnAChR agonists were administered to single cells by a pressure system from a micropipette containing a relatively concentrated solution and placed at […] distance from the recorded cell. […] This method allows very rapid administration of a chemical substance with a few ms latency to observe a cell response. For application of antagonists, test compounds and control solution we used a rapid superfusion system (Bio-logic, France) consisting of an array of glass capillary tubes (0.8 mm o.d.) which, through rapid rotation, generate solution flow onto the treated cell. In this case the exchange time between two solutions is about 50 ms."}, "[2]": {"biological_target": "T1, muscle-type nicotinic receptors (Mus musculus, UniProt P02716+P04756+P09690)", "T1 construct": "nicotinic currents recorded from cultured muscle cells (myotubes, I28); endogenous in cells; host or cells: I28 myotubes", "T1 sequence (P04756 21-457)": "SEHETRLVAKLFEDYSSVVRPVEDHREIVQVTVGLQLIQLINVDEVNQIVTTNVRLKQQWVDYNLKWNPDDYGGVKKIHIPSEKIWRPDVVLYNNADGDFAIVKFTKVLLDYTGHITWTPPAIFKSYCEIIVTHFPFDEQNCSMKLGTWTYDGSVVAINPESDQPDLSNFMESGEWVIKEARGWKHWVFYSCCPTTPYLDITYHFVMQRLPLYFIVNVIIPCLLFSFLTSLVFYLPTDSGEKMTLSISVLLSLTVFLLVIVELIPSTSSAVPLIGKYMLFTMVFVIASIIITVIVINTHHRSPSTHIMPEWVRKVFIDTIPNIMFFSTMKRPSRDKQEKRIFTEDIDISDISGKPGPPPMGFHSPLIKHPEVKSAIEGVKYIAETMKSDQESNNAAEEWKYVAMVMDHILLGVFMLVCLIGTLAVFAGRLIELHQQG", "T1 sequence (P09690 24-501)": "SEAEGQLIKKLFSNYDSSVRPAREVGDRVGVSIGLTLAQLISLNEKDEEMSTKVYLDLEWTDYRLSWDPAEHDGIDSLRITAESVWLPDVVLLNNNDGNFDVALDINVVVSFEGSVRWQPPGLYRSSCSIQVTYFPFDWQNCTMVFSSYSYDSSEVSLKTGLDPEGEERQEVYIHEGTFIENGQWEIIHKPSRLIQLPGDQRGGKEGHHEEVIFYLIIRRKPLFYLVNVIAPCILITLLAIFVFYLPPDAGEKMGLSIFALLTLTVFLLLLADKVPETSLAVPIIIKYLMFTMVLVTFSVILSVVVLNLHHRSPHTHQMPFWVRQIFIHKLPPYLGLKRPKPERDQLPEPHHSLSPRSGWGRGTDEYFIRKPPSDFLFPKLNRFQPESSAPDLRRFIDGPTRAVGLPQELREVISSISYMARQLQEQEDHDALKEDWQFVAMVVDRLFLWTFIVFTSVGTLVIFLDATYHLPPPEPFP", "T1 sequence (P02716 25-520)": "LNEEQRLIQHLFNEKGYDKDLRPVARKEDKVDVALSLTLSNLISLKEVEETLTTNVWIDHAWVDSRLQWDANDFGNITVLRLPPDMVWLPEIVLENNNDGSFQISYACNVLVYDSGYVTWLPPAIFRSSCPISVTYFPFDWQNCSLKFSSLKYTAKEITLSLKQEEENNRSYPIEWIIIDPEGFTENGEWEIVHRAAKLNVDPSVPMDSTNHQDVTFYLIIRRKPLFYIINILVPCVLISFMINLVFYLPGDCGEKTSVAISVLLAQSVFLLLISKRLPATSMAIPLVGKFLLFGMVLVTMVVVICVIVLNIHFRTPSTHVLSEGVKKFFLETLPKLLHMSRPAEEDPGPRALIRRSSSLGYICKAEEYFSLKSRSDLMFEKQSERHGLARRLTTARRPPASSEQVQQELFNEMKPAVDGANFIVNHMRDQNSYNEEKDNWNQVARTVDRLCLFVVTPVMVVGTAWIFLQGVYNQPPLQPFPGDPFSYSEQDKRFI", "T1 sequence (P04760 23-519 partner)": "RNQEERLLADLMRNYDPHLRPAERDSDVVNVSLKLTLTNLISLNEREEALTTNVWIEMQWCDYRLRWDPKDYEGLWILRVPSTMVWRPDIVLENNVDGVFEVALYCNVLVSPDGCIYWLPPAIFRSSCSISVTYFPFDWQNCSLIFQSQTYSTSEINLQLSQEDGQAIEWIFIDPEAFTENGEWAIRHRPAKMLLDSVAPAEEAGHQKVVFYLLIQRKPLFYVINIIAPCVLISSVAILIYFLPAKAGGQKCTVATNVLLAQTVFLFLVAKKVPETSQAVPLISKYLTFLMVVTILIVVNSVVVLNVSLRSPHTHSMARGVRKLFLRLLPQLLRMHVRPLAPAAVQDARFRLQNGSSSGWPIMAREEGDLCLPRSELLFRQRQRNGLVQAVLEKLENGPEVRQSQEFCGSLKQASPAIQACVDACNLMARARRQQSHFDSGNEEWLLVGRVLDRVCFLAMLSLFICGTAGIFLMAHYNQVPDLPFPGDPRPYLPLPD", "assay": "Patch-clamp recording of nicotinic currents in cultured muscle cells (myotubes, I28)", "assay_type": "cell-based", "procedure": "A set of experiments was carried out using […] which represent myotubes and therefore contain muscle-type nicotinic receptors. For this purpose the cells were prepared according to method by Irintchev et al. (1997).\nas §1\nTo this end we studied whether this peptide could affect nicotinic currents recorded from cultured muscle cells (myotubes, I28). These cells were kept at −60 mV potential by the patch electrode."}, "nAChRs": {"system": "nAChRs", "details": "Giniatullin et al.; cited from earlier work"}, "[3]": {"details": "1 μM peptide, nicotine 0.1 mM, 20 ms pulse"}},
  "note": "Where “and” joins values, the source holds several entries; their conditions need not be identical. Equal entries are not always repeated. Entries after “also recorded” stand apart in the source; their conditions may differ. No end group written: not given here.",
  "data": [
    {"compound": "CNC(=O)Oc1ccc2c(c1)[C@]1(C)CCN(C)[C@@H]1N2C", "note": "[physostigmine, reference compound]", "values": [
      {"measurement": "depression (reduction) of the response to nicotine", "setting": "[1]; 20 ms", "result": "48±5", "unit": "%"},
      {"measurement": "depression (reduction) of the response to nicotine", "setting": "[1]; 20 ms, listed as phystigmine", "result": "77±1", "unit": "%"}
    ]},
    {"compound": "CN1CCCC1c1cccnc1", "note": "(stereo not drawn) [Nicotine, nicotine, reference compound]", "values": [
      {"measurement": "EC50", "setting": "[2]", "result": 100, "unit": "µM"}
    ]},
    {"compound": "Ser-Cys-Asn-Thr (SCNT; listed as Homo sapiens) [CGRP 1-4]", "values": [
      {"measurement": "enhancement of nicotine induced currents", "setting": "[1]; [3]", "result": "8±1", "unit": "%"},
      {"measurement": "action of fragment on nicotinic currents (in words)", "setting": "[1]; FIG. 5B", "result": "modest enhancing effect"}
    ]},
    {"compound": "SCNTATC (cysteine pairing not given here) [CGRP 1-7, reference compound]", "values": [
      {"measurement": "action on nAChRs reported earlier (in words)", "setting": "nAChRs", "result": "rapidly developing, competitive antagonism readily reversible on wash"},
      {"measurement": "inhibition of nicotine currents", "setting": "[1]; 1 μM peptide", "result": 42, "unit": "%"}
    ]},
    {"compound": "Ser-Cys-Asn-Thr-Ala (SCNTA; listed as Homo sapiens) [CGRP 1-5]", "values": [
      {"measurement": "enhancement of nicotine induced currents", "setting": "[1]; 10 μM peptide", "result": "26±4", "unit": "%"}
    ]},
    {"compound": "SCNTATA [CGRP 1-7A, Cys7 replaced with Ala]", "values": [
      {"measurement": "wash time for reversal of enhancement", "setting": "[1]; 1 μM peptide", "result": "about 1 min"},
      {"measurement": "effect on nicotine dose response curve", "setting": "[1]", "result": "significantly shifted to left without increase in the maximum response"},
      {"measurement": "enhancement of nicotine induced currents", "setting": "[1]; [3]", "result": "17±4", "unit": "%"},
      {"measurement": "enhancement of nicotine induced currents", "setting": "[1]; 1 μM peptide, nicotine 0.1 mM, 20 ms pulse, listed as 1-7A", "result": 18, "unit": "%"},
      {"measurement": "enhancement of nicotine induced currents", "setting": "[1]; 1 μM peptide, nicotine 0.1 mM, 20 ms pulse, listed as CGRP 1-7 A", "result": "about 18%"}
    ]},
    {"compound": "SCNTAT [CGRP 1-6]", "values": [
      {"measurement": "effect on muscle-type nicotinic receptor responses (in words)", "setting": "[2]", "result": "did not modify the muscle-type nicotinic receptor responses"},
      {"measurement": "amplitude of nicotine responses as % of the controls", "setting": "[2]; 1 μM CGRP 1-6 pre-applied for 2 minutes, nicotine 100 μM, −60 mV", "result": "101±2", "unit": "%"},
      {"measurement": "potentiation of nicotine current at threshold", "setting": "[1]; 0.1 μM peptide, nicotine 20 ms, 0.1 mM", "result": "105±7", "unit": "%"},
      {"measurement": "nicotine currents (fraction of control) on concurrent application of CGRP 1-6 and CGRP 1-7", "setting": "[1]; 1 μM concentration of both", "result": "99±4", "unit": "%"},
      {"measurement": "application time after which enhancement is observed", "setting": "[1]; 1 μM peptide", "result": "≤ 5", "unit": "s"},
      {"measurement": "wash time for reversal of enhancement", "setting": "[1]; 1 μM peptide", "result": "about 1 min"},
      {"measurement": "effect on nicotine dose response curve", "setting": "[1]", "result": "shifted to the left in a parallel fashion without modification of the maximum response"},
      {"measurement": "effect on maximal currents (saturating nicotine pulse)", "setting": "[1]; 1 μM peptide, 200 ms nicotine pulse", "result": "absent; also recorded: not modified"},
      {"measurement": "enhancement of nicotine induced currents", "setting": "[1]; [3]", "result": "31% and 31±7% and 21±4%"},
      {"measurement": "maximum value of potentiation of nicotine current", "setting": "[1]; 50 μM peptide, nicotine 20 ms, 0.1 mM", "result": "156±6", "unit": "%"},
      {"measurement": "enhancement with combined application of CGRP 1-6 and physostigmine", "setting": "[1]; CGRP 1-6 1 μM + physostigmine 0.5 μM", "result": "37±6", "unit": "%"},
      {"measurement": "washout time for current to return to the initial value", "setting": "[1]; FIG. 3C", "result": "45 to 60", "unit": "s"},
      {"measurement": "enhancement with cytisine as agonist", "setting": "[1]; cytisine 20 ms, 0.1 mM", "result": "enhancing effect was exerted also when nAChRs were activated by cytisine"},
      {"measurement": "CGRP 1-6 enhancing action threshold value", "setting": "[1]; nicotine 0.1 mM, 20 ms, 0.05–100 μM tested", "result": 0.1, "unit": "µM"},
      {"measurement": "nicotine currents as % of the control with physostigmine plus CGRP 1-6", "setting": "[1]; physostigmine 5 μM + CGRP 1-6 1 μM", "result": "79±1", "unit": "%"},
      {"measurement": "direct action in the absence of agonist", "setting": "[1]; resting membrane conductance, baseline current", "result": "not associated with any direct action"},
      {"measurement": "dependence of enhancing action on membrane potential", "setting": "[1]; −40, −70 and −100 mV", "result": "independent from the membrane potential"}
    ]}
  ]
}
